Measurements published in patent publication US8435762B2, “Chimeric ligand-gated ion channels and methods of use thereof” (Howard Hughes Medical Institute, priority 2008, dated 2013).
Where two headings read alike, the source gives them in different places.

What was measured:
[1] = target: T1, α7-5HT3 Q79G L141S (Homo sapiens, UniProt P36544, L141S/M226I/Q79G/T225I); assay: whole cell voltage clamp recordings (Iss, Ipeak); format: cell-based, human/mouse; conditions: for EC50: α7 Q79G L141S, IPD 5HT3
T1 construct: expressed in transfected cells

[2] = target: T2, α7-5HT3 wt chimeric receptor (Homo sapiens, UniProt P36544, M226I/T225I); assay: fluorescence membrane potential (MP) assay, HEK 293 cells; format: cell-based, human/mouse; conditions: dose response curves, MP assay
T2 construct: expressed in transfected cells; host or cells: HEK 293 cells

[3] = target: T1, α7-5HT3 Q79G L141S; assay: as above; format: cell-based, human/mouse; conditions: IPD 5HT3, value (s.e.m.)
[4] = target: T3, α7-5HT3 Q79G (Homo sapiens, UniProt P36544, M226I/Q79G/T225I); assay: whole cell voltage clamp recordings (Iss, Ipeak); format: cell-based, human/mouse
T3 construct: expressed in transfected cells; host or cells: HEK 293 cells (ATCC CRL-1573)

[5] = target: T4, α7-5HT3 Q79G Q139M (Homo sapiens, UniProt P36544, M226I/Q139M/Q79G/T225I); assay: fluorescence membrane potential (MP) assay, HEK 293 cells; format: cell-based, human/mouse
T4 construct: expressed in transfected cells

[6] = target: T5, α7-GlyR Q79G (Homo sapiens, UniProt P36544, Q79G); assay: whole cell voltage clamp recordings (Iss, Ipeak); format: cell-based; conditions: IPD GlyR
T5 construct: expressed in transfected cells; host or cells: HEK 293 cells

[7] = target: T6, α7-5HT3 Q79G Q139G (Homo sapiens, UniProt P36544, M226I/Q139G/Q79G/T225I); assay: whole cell voltage clamp recordings (Iss, Ipeak); format: cell-based, human/mouse
T6 construct: expressed in transfected cells

[8] = target: T6, α7-5HT3 Q79G Q139G; assay: fluorescence membrane potential (MP) assay, HEK 293 cells; format: cell-based, human/mouse; conditions: IPD 5HT3
[9] = target: T3, α7-5HT3 Q79G; assay: as above; format: cell-based, human/mouse
[10] = peak current, read-out: EC50-Ipeak
[11] = steady state current, read-out: EC50-Iss
[12] = peak current, IPD 5HT3, read-out: EC50-Ipeak
[13] = steady state current, IPD 5HT3, read-out: EC50-Iss

T6 sequence (P36544 with tags, fused parts or gaps Q79G/Q139G/T225I/M226I): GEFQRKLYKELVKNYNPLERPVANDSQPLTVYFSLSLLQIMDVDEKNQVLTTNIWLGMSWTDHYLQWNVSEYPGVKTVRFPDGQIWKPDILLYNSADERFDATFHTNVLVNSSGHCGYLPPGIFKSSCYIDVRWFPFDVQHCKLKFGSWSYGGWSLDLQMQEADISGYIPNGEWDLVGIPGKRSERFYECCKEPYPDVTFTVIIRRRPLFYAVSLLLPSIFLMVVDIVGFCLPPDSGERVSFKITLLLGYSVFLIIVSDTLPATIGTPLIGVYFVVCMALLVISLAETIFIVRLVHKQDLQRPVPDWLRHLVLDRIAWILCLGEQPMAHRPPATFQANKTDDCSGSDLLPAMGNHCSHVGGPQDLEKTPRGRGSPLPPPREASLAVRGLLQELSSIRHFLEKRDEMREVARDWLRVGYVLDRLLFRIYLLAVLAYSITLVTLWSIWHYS
T3 sequence (P36544 with tags, fused parts or gaps Q79G/T225I/M226I): as the sequence (P36544 with tags, fused parts or gaps Q79G/Q139G/T225I/M226I) above, with G117Q counted along it
T1 sequence (P36544 with tags, fused parts or gaps Q79G/L141S/T225I/M226I): as the sequence (P36544 with tags, fused parts or gaps Q79G/Q139G/T225I/M226I) above, with G117Q, L119S counted along it
T4 sequence (P36544 with tags, fused parts or gaps Q79G/Q139M/T225I/M226I): as the sequence (P36544 with tags, fused parts or gaps Q79G/Q139G/T225I/M226I) above, with G117M counted along it
T2 sequence (P36544 with tags, fused parts or gaps T225I/M226I): as the sequence (P36544 with tags, fused parts or gaps Q79G/Q139G/T225I/M226I) above, with G57Q, G117Q counted along it
T5 sequence (P36544 with tags, fused parts or gaps Q79G): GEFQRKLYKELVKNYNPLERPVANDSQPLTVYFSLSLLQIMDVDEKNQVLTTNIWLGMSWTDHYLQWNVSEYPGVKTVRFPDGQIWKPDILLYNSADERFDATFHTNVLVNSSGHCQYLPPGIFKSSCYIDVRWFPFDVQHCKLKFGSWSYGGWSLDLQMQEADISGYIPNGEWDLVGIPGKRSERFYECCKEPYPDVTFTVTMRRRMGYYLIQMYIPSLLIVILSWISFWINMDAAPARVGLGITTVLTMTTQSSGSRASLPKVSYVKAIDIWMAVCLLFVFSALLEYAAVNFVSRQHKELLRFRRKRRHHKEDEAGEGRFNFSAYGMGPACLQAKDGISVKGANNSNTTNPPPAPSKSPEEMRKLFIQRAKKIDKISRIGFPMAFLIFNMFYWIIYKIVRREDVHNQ

SMILES	EC50 [1, 10]	shift in the efficacy for α7-5HT3 Q79G L141S ([1]; relative to α7-5HT3 Q79G)	EC50 [1, 11]	activity against α7-5HT3 wt (unmodified) receptor [2]	EC50 [3]	EC50 [4, 12]	EC50 [4, 13]	fold improvement in potency (EC50), α7-5HT3 Q79G Q139M relative to α7-5HT3 Q79G ([5]; EC50MP)	EC50 ([5]; α7 Q79G Q139M, IPD 5HT3, value (s.e.m.), read-out: EC50-MP)	EC50 [6, 10]	EC50 [6, 11]	EC50 [7, 12]	EC50 [7, 13]	EC50 [8]	selectivity for Q79G relative to other mutant receptors ([9]; FIG. 5 dose response curves)	EC50 ([9]; read-out: EC50-MP, α7 Q79G, IPD 5HT3, value (s.e.m.))
CCCCc1ccc(C(=O)N[C@@H]2CN3CCC2CC3)cc1 [Compound 9S, (S)-4-butyl-N-(quinuclidin-3-yl)benzamide]	12.3 µM	only slight shift	4 µM	did not induce activate	4.1 µM	4300 nM	2300 nM									
O=C(N[C@@H]1CN2CCC1CC2)c1ccc(C(F)(F)F)cc1 [Compound 22S, (S)—N-(quinuclidin-3-yl)-4-(trifluoromethyl)benzamide]				did not induce activate		2700 nM	400 nM	20 fold	60 ± 40 nM	7.5 µM	4.8 µM	11.6 ± 3.6 µM	2.7 ± 1 µM	3.9 µM	selective	800 nM
